Source: paper PMC8795197, “Safety and activity of WX-0593 (Iruplinalkib) in patients with ALK- or ROS1-rearranged advanced non-small cell lung cancer: a phase 1 dose-escalation and dose-expansion trial” (Signal Transduction and Targeted Therapy, 2022)
Where two headings read alike, the source gives them in different places.

What was measured:
Ba/F3 CD74-ROS1-L1951R = experiment: Growth of transfected Ba/F3 cells (CellTiter-Glo, 3 days); format: cell-based; settings: Mus musculus, BaF3
Experimental: (§1) Harvest cells during the logarithmic growth period and count cells using blood counting chamber. Adjust cell concentration with culture medium. Add 90µl cell suspensions to two 96-well plates to the final cell density as described before. Incubate the plate overnight in humidified incubator at 37℃ with 5% CO2. Dispense 10µl drug solution (10×) to each well (triplicate for each concentration), and the DMSO final concentration in culture medium is 0.1% [v/v]. Culture the plates for 3 days.On Day 3, Read luminescent using Multi Label Reader. The software of GraphPad Prism was used to calculate IC50. The graphical curves were fitted using a nonlinear regression model with a sigmoidal dose response.

Ba/F3 CD74-ROS1-S1986F = experiment: as above; format: cell-based; settings: Mus musculus, BaF3
Experimental: as §1

Ba/F3 CD74-ROS1-D2033N = experiment: as above; format: cell-based; settings: Mus musculus, BaF3
Experimental: as §1

Ba/F3 CD74-ROS1-S1986Y = experiment: as above; format: cell-based; settings: Mus musculus, BaF3
Experimental: as §1

Ba/F3 (EML4-ALK-L1196M) = experiment: Cell proliferation inhibition assay; format: cell-based
LU-01-0319R NSCLC PDX = experiment: PDX model resistant to crizotinib; format: in vivo; settings: WX-0593 2.5, 5, 10 mg/kg; ceritinib 10/20 mg/kg; brigatinib 10 mg/kg
Ba/F3 ALK-I1171N = experiment: Growth of transfected Ba/F3 cells (CellTiter-Glo, 3 days); format: cell-based; settings: Mus musculus, BaF3
Experimental: as §1, with “days. On” for “days.On”

Ba/F3 ALK-V1180L = experiment: as above; format: cell-based; settings: Mus musculus, BaF3
Experimental: as §1, with “days. On” for “days.On”

Ba/F3 ALK-I1171T = experiment: as above; format: cell-based; settings: Mus musculus, BaF3
Experimental: as §1, with “days. On” for “days.On”

Ba/F3 ALK-L1196M = experiment: as above; format: cell-based; settings: Mus musculus, BaF3
Experimental: as §1, with “days. On” for “days.On”

Ba/F3 ALK-L1152P = experiment: as above; format: cell-based; settings: Mus musculus, BaF3
Experimental: as §1, with “days. On” for “days.On”

Ba/F3 ALK-C1156Y = experiment: as above; format: cell-based; settings: Mus musculus, BaF3
Experimental: as §1, with “days. On” for “days.On”

Ba/F3 ALK-G1269A = experiment: as above; format: cell-based; settings: Mus musculus, BaF3
Experimental: as §1, with “days. On” for “days.On”

Ba/F3 ALK-T1151Tins = experiment: as above; format: cell-based; settings: Mus musculus, BaF3
Experimental: as §1, with “days. On” for “days.On”

Ba/F3 ALK-G1202R = experiment: as above; format: cell-based; settings: Mus musculus, BaF3
Experimental: as §1, with “days. On” for “days.On”

Ba/F3 ALK-WT = experiment: as above; format: cell-based; settings: Mus musculus, BaF3
Experimental: as §1, with “days. On” for “days.On”

Ba/F3 ALK-I1171S = experiment: as above; format: cell-based; settings: Mus musculus, BaF3, ALK-I1171S
Experimental: as §1, with “days. On” for “days.On”

Ba/F3 ALK-G1202del = experiment: as above; format: cell-based; settings: Mus musculus, BaF3
Experimental: as §1, with “days. On” for “days.On”

Ba/F3 ALK-F1174L = experiment: as above; format: cell-based; settings: Mus musculus, BaF3
Experimental: as §1, with “days. On” for “days.On”

Ba/F3 ALK-L1152R = experiment: as above; format: cell-based; settings: Mus musculus, BaF3
Experimental: as §1, with “days. On” for “days.On”

Ba/F3 ALK-F1174C = experiment: as above; format: cell-based; settings: Mus musculus, BaF3, ALK-F1174C
Experimental: as §1, with “days. On” for “days.On”

Ba/F3 (EML4-ALK-WT) = experiment: Cell proliferation inhibition assay; format: cell-based
[1] = system: 27 non-target kinases (MAP4K4 ... INSR, EGFR wild type); experiment: Inhibitory study of 27 non-target kinases; format: biochemical; settings: except for EGFR wild type
[2] = system: NCI-H1975 (EGFR mutant L858R/T790M); experiment: Cell proliferation inhibition assay; format: cell-based
[3] = system: patients treated with ALK TKIs; settings: cited from earlier work
[4] = system: Ba/F3 SLC34A2-ROS1-G2032R; experiment: Growth of transfected Ba/F3 cells (CellTiter-Glo, 3 days); format: cell-based; settings: Mus musculus, BaF3
Experimental: as §1

Ba/F3 SLC34A2-ROS1 = experiment: as above; format: cell-based; settings: Mus musculus, BaF3
Experimental: as §1

[5] = system: Ba/F3 SLC34A2-ROS1-L2026M; experiment: as above; format: cell-based; settings: Mus musculus, BaF3
Experimental: as §1

Karpas299 (NPM-ALK) = experiment: Cell proliferation inhibition assay; format: cell-based
Ba/F3 (EML4-ALK-C1156Y) = experiment: Cell proliferation inhibition assay; format: cell-based
Ba/F3 ALK-F1174V = experiment: Growth of transfected Ba/F3 cells (CellTiter-Glo, 3 days); format: cell-based; settings: Mus musculus, BaF3; ALK-F1174V; read-out: IC50
Experimental: as §1, with “days. On” for “days.On”

[6] = system: NSCLC patients with ALK or ROS1 rearrangement; settings: ALK-rearranged patients; cited from earlier work
[7] = Grades 1 and 2 adverse reactions
[8] = serious adverse events in more than 2 patients

SMILES: CCc1cc2c(cc1N1CCC(N3CCOCC3)CC1)C(C)(C)c1[nH]c3cc(C#N)ccc3c1C2=O [Alectinib]
- IC50 (Ba/F3 CD74-ROS1-L1951R): 5.41 µM
- IC50 (Ba/F3 CD74-ROS1-S1986F): 10 µM
- IC50 (Ba/F3 CD74-ROS1-D2033N): 5.07 µM
- IC50 (Ba/F3 CD74-ROS1-S1986Y): 10 µM

SMILES: COc1cc(N2CCC(N3CCN(C)CC3)CC2)ccc1Nc1ncc(Cl)c(Nc2ccccc2P(C)(C)=O)n1 [Brigatinib]
- growth inhibition (Ba/F3 (EML4-ALK-L1196M)): significantly inhibits the growth
- anti-tumor effect (LU-01-0319R NSCLC PDX): significant effects against crizotinib-induced resistance
- IC50 (Ba/F3 ALK-I1171N): 0.035 µM
- IC50 (Ba/F3 ALK-V1180L): 0.0104 µM
- IC50 (Ba/F3 ALK-I1171T): 0.0189 µM
- IC50 (Ba/F3 ALK-L1196M): 0.031 µM
- IC50 (Ba/F3 ALK-L1152P): 0.0015 µM
- IC50 (Ba/F3 ALK-C1156Y): 0.039 µM
- IC50 (Ba/F3 ALK-G1269A): 0.031 µM
- IC50 (Ba/F3 ALK-T1151Tins): 0.035 µM
- IC50 (Ba/F3 ALK-G1202R): 0.34 µM
- IC50 (Ba/F3 ALK-WT): 0.025 µM
- IC50 (Ba/F3 ALK-I1171S; first listing (r12)): 0.093 µM
- IC50 (Ba/F3 ALK-I1171S; second listing (r19)): 0.04 µM
- IC50 (Ba/F3 ALK-G1202del): 1 µM
- IC50 (Ba/F3 ALK-F1174L): 0.031 µM
- IC50 (Ba/F3 ALK-L1152R): 0.0104 µM
- IC50 (Ba/F3 ALK-F1174C; first listing (r10)): 0.097 µM
- IC50 (Ba/F3 ALK-F1174C; second listing (r15)): 0.0516 µM
- growth inhibition (Ba/F3 (EML4-ALK-WT)): significantly inhibits the growth
- inhibitory activity against non-target kinases [1]: no significant inhibitory activity
- growth inhibition [2]: somewhat inhibits the growth
- coughing [3, 7]: 26%
- diarrhea [3, 7]: 36%
- fatigue [3, 7]: 36%
- headache [3, 7]: 26%
- nausea [3, 7]: 45%
- diarrhea, % of patients [3]: 41%
- dose reduction due to TEAEs, % of patients [3]: 14%
- DLTs in the tolerability study ([3]; one Grade 3 ALT increased, one Grade 4 dyspnea and Grade 3 hypoxia): Two
- coughing [3, 8]: 4%
- dyspnea [3, 8]: 4%
- hypoxia [3, 8]: 4%
- pleural effusion [3, 8]: 4%
- pneumonia [3, 8]: 7%
- IC50 (Ba/F3 CD74-ROS1-L1951R): 0.775 µM
- IC50 [4]: 0.846 µM
- IC50 (Ba/F3 SLC34A2-ROS1): 0.022 µM
- IC50 (Ba/F3 CD74-ROS1-S1986F): 0.0202 µM
- IC50 [5]: 0.048 µM
- IC50 (Ba/F3 CD74-ROS1-D2033N): 0.0365 µM
- IC50 (Ba/F3 CD74-ROS1-S1986Y): 0.0125 µM
- growth inhibition (Karpas299 (NPM-ALK)): significantly inhibits the growth
- growth inhibition (Ba/F3 (EML4-ALK-C1156Y)): significantly inhibits the growth

SMILES: Cc1cc(Nc2ncc(Cl)c(Nc3ccccc3S(=O)(=O)C(C)C)n2)c(OC(C)C)cc1C1CCNCC1 [Ceritinib]
- anti-tumor effect (LU-01-0319R NSCLC PDX): significant effects against crizotinib-induced resistance
- IC50 (Ba/F3 ALK-I1171N; ALK-I1171N, read-out: IC50): 0.0418 µM
- IC50 (Ba/F3 ALK-F1174V): 0.0537 µM
- IC50 (Ba/F3 ALK-V1180L; ALK-V1180L, read-out: IC50): 0.0156 µM
- IC50 (Ba/F3 ALK-I1171T; ALK-I1171T, read-out: IC50): 0.0278 µM
- IC50 (Ba/F3 ALK-L1196M; ALK-L1196M, read-out: IC50): 0.033 µM
- IC50 (Ba/F3 ALK-L1152P; ALK-L1152P, read-out: IC50): 0.0715 µM
- IC50 (Ba/F3 ALK-C1156Y; ALK-C1156Y, read-out: IC50): 0.087 µM
- IC50 (Ba/F3 ALK-G1269A; ALK-G1269A, read-out: IC50): 0.016 µM
- IC50 (Ba/F3 ALK-T1151Tins; ALK-T1151Tins, read-out: IC50): 0.096 µM
- IC50 (Ba/F3 ALK-G1202R; ALK-G1202R, read-out: IC50): 0.502 µM
- IC50 (Ba/F3 ALK-WT; ALK-WT, read-out: IC50): 0.013 µM
- IC50 (Ba/F3 ALK-I1171S; first listing (r12), read-out: IC50): 0.097 µM
- IC50 (Ba/F3 ALK-I1171S; second listing (r19), read-out: IC50): 0.0458 µM
- IC50 (Ba/F3 ALK-G1202del; ALK-G1202del, read-out: IC50): 0.925 µM
- IC50 (Ba/F3 ALK-F1174L; ALK-F1174L, read-out: IC50): 0.021 µM
- IC50 (Ba/F3 ALK-L1152R; ALK-L1152R, read-out: IC50): 0.116 µM
- IC50 (Ba/F3 ALK-F1174C; first listing (r10), read-out: IC50): 0.095 µM
- IC50 (Ba/F3 ALK-F1174C; second listing (r15), read-out: IC50): 0.0795 µM
- ORR [6]: 58%
- ALT increased [3, 7]: 35%
- diarrhea [3, 7]: 75%
- fatigue [3, 7]: 47%
- nausea [3, 7]: 82%
- vomiting [3, 7]: 65%
- diarrhea, % of patients [3]: 75%
- dose reduction due to TEAEs, % of patients [3]: 62%
- IC50 (Ba/F3 CD74-ROS1-L1951R): 0.642 µM
- IC50 [4]: 1.1 µM
- IC50 (Ba/F3 SLC34A2-ROS1): 0.014 µM
- IC50 (Ba/F3 CD74-ROS1-S1986F): 0.0496 µM
- IC50 [5]: 0.054 µM
- IC50 (Ba/F3 CD74-ROS1-D2033N): 0.159 µM
- IC50 (Ba/F3 CD74-ROS1-S1986Y): 0.0325 µM
